Laboratory results reported in PMC10746543, “Design principles for cyclin K molecular glue degraders” (Nature Chemical Biology, 2023).
Where “and” joins values, the source holds several entries; their conditions need not be identical. Equal values may be shown once. Read-outs that look alike come from different tables or passages of the source. Blank lines part the entries; values can stand above or below the compound they belong to.

Legend:
CDK12–cyclin K and DDB1 = target: T1, CDK12–cyclin K and DDB1 (Homo sapiens, UniProt Q16531+Q9NYV4, K965R); test: TR-FRET ternary complex formation assay (compound titration); format: binding; conditions: for TR-FRET signal at compound concentration: replicate titrations
T1 construct: His6–CDK12 (a.a. 713–1,052); full-length or beta-propeller B domain deletion (ΔBPB: a.a. 396–705 deleted) constructs of His6–DDB1ΔBPB, StrepII–Avi–DDB1, or His6–Spy–DDB1; made in house; host or cells: Trichoplusia ni High Five insect cells (baculovirus)
Outline: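 A time delay of 70 μs preceded acquisition, limiting background fluorescence; the ratio of emission at 520 versus 490 nm gave the TR-FRET value.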

[1] = test system: cyclin K–eGFP degradation reporter; test: Cyclin K reporter stability analysis (dual-color cyclin K–eGFP reporter); format: cell-based, human
Outline: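 Values reflect cyclin K–eGFP levels after a 5 h exposure, expressed as the green-to-red fluorescence ratio and scaled to three vehicle-treated controls. Measurements came from HEK293T–Cas9 reporter cells by flow cytometry.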

HEK293T cells = test: Drug sensitivity assay (CellTiter-Glo viability) with or without MLN4924 pretreatment; format: cell-based, human; conditions: for EC50: Homo sapiens, HEK-293T; for Toxicity rescue: MLN4924-mediated cytotoxicity rescue, 10 µM used where n.d.
Outline: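 Cas9-expressing HEK293T cells receive either vehicle or 100 nM MLN4924, then compounds 2 h afterwards. After three days, luminescence-based viability is measured and calculated relative to DMSO.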

[2] = Supplementary Table 2, HEK293T viability, 72 h, compound alone, read-out: Cellular assays EC50
[3] = in vitro complex formation, 50 nM CDK12–cyclin K, 100 nM DDB1, text and figures, read-out: TR-FRET EC50
[4] = sheet MOESM7, read-out: log TR-FRET EC50 (converted)
[5] = source data sheet correlations, read-out: TR-FRET EC50
[6] = source data sheet correlations, read-out: DC50

T1 sequence (Q9NYV4 713-1052 K965R): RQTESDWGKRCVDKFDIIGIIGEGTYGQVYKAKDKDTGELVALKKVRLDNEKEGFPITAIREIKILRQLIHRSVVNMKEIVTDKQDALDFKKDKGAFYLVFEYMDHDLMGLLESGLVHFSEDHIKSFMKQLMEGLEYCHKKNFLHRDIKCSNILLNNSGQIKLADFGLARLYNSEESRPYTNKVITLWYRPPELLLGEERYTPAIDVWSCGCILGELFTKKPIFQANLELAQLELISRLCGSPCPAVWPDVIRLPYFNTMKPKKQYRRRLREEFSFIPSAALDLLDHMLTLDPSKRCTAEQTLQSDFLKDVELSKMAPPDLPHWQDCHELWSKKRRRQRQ
T1 sequence (O75909 1-267 partner): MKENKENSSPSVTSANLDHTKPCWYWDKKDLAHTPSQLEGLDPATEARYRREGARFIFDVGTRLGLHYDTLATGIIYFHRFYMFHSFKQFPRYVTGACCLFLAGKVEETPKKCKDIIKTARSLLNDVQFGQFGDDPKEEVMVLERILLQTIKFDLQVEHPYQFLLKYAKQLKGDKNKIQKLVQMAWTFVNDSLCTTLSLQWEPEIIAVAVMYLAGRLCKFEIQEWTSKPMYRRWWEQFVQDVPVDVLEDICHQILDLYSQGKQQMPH
T1 sequence (Q16531 whole entry): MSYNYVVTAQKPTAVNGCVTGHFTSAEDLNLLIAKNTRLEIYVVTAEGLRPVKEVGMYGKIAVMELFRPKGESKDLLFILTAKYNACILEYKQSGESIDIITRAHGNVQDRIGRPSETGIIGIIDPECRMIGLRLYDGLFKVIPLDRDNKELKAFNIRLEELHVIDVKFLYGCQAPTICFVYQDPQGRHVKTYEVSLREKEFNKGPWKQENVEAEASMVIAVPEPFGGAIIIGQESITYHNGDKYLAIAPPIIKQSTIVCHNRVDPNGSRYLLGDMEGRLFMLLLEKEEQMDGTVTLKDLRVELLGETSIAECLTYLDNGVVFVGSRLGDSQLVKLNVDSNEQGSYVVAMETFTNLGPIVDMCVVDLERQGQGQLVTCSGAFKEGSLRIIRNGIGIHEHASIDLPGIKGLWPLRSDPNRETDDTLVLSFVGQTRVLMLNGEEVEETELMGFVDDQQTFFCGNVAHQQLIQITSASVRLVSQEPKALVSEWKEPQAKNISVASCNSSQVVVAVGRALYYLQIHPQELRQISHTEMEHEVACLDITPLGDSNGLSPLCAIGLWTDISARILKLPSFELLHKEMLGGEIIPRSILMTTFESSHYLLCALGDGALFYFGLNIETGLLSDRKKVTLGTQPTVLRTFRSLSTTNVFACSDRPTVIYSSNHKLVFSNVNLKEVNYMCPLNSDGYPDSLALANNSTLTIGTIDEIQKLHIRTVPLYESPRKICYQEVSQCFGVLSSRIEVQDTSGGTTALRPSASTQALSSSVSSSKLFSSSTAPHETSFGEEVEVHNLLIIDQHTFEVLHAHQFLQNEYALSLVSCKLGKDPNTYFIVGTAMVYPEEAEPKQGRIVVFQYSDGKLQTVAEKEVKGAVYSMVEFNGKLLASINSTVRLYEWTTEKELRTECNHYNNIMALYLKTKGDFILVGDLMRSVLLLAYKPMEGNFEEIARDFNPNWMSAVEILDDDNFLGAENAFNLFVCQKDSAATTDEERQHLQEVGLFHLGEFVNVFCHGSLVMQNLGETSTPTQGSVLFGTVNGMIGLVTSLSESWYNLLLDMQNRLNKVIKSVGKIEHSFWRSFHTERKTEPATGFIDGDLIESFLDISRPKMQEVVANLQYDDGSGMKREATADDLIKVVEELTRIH

- TR-FRET signal at compound concentration 4.68 nM (CDK12–cyclin K and DDB1; compound concentration 4.68 nM, raw replicate titration data): 0.2594 and 0.2805 and 0.1719 and 0.175
- TR-FRET signal at compound concentration 21.6 nM (CDK12–cyclin K and DDB1; compound concentration 21.6 nM, raw replicate titration data): 0.4135 and 0.429 and 0.2939 and 0.3262
- TR-FRET signal at compound concentration 36 nM (CDK12–cyclin K and DDB1; compound concentration 36 nM, raw replicate titration data): 0.6079 and 0.623 and 0.4905 and 0.5031
- TR-FRET signal at compound concentration 79.2001 nM (CDK12–cyclin K and DDB1; compound concentration 79.2001 nM, raw replicate titration data): 0.8256 and 0.8685 and 0.6858 and 0.596
- TR-FRET signal at compound concentration 158.4 nM (CDK12–cyclin K and DDB1; compound concentration 158.4 nM, raw replicate titration data): 0.9273 and 1.013 and 0.793 and 0.779
- TR-FRET signal at compound concentration 309.6 nM (CDK12–cyclin K and DDB1; compound concentration 309.6 nM, raw replicate titration data): 0.9662 and 1.065 and 0.8707 and 0.8846
- TR-FRET signal at compound concentration 626.401 nM (CDK12–cyclin K and DDB1; compound concentration 626.401 nM, raw replicate titration data): 1.035 and 1.155 and 0.9082 and 0.902
- TR-FRET signal at compound concentration 1252.8 nM (CDK12–cyclin K and DDB1; compound concentration 1252.8 nM, raw replicate titration data): 1.099 and 1.27 and 0.978 and 0.9866
- TR-FRET signal at compound concentration 2448 nM (CDK12–cyclin K and DDB1; compound concentration 2448 nM, raw replicate titration data): 1.138 and 1.2612 and 0.9975 and 0.9532
- TR-FRET signal at compound concentration 9936.01 nM (CDK12–cyclin K and DDB1; compound concentration 9936.01 nM, raw replicate titration data): 1.131 and 1.306 and 0.9937 and 0.9375
- TR-FRET signal at compound concentration 20016 nM (CDK12–cyclin K and DDB1; compound concentration 20016 nM, raw replicate titration data): 1.0554 and 1.222 and 0.9378 and 0.9067
- DC50 ([1]; Supplementary Table 2, HEK293T cycK-eGFP reporter, 5 h, read-out: Cellular assays DC50): > 10 µM
SMILES: CN1CC[C@H](c2c(O)cc(O)c3c(=O)cc(-c4ccccc4Cl)oc23)[C@H](O)C1 [Flavopiridol, reference compound]
- EC50 (HEK293T cells; [2]): 0.395 µM
- Toxicity rescue (HEK293T cells; Supplementary Table 2): 1%

- TR-FRET signal at compound concentration (CDK12–cyclin K and DDB1; compound concentration 0.468 nM): 0.2854 and 0.3016
- TR-FRET signal at compound concentration (CDK12–cyclin K and DDB1; compound concentration 2.16 nM): 0.3338 and 0.3545
- TR-FRET signal at compound concentration (CDK12–cyclin K and DDB1; compound concentration 3.6 nM): 0.4308 and 0.466
- TR-FRET signal at compound concentration (CDK12–cyclin K and DDB1; compound concentration 7.92001 nM): 0.6201 and 0.666
- TR-FRET signal at compound concentration (CDK12–cyclin K and DDB1; compound concentration 15.84 nM): 0.9968 and 1.0413
- TR-FRET signal at compound concentration (CDK12–cyclin K and DDB1; compound concentration 30.96 nM): 1.655 and 1.7184
- TR-FRET signal at compound concentration (CDK12–cyclin K and DDB1; compound concentration 62.6401 nM): 2.415 and 2.607
- TR-FRET signal at compound concentration (CDK12–cyclin K and DDB1; compound concentration 125.28 nM): 3.042 and 3.307
- TR-FRET signal at compound concentration (CDK12–cyclin K and DDB1; compound concentration 244.8 nM): 3.43 and 3.794
- TR-FRET signal at compound concentration (CDK12–cyclin K and DDB1; compound concentration 993.601 nM): 3.717 and 4.015
- TR-FRET signal at compound concentration (CDK12–cyclin K and DDB1; compound concentration 2001.6 nM): 3.6778 and 3.923
- EC50 (CDK12–cyclin K and DDB1; [3]): 0.044 ± 0.002 µM
- EC50 (CDK12–cyclin K and DDB1; [4]): 0.0437 µM
- EC50 (CDK12–cyclin K and DDB1; [5]): 0.0437 µM
- DC50 [1, 6]: 0.075 µM
SMILES: CC[C@H](CO)Nc1nc(NCc2ccn(-c3cccc(Cl)c3)n2)c2ncn(C(C)C)c2n1 [DS43]
- EC50 (HEK293T cells; Supplementary Fig. 5, HEK293T, CellTiter Glo, 72h, pre-treatment with 100 nM MLN4924, read-out: Viability EC50, with MLN4924): 15.5 µM
- EC50 (HEK293T cells; [2]): 1.26 µM
- % MLN4924 rescue (HEK293T cells; PCA input): 649%
- Toxicity rescue (HEK293T cells; Supplementary Table 2): 697%

- TR-FRET signal at compound concentration (CDK12–cyclin K and DDB1; compound concentration 4.68 nM): 0.2788 and 0.2836
- TR-FRET signal at compound concentration (CDK12–cyclin K and DDB1; compound concentration 21.6 nM): 0.5021 and 0.5027
- TR-FRET signal at compound concentration (CDK12–cyclin K and DDB1; compound concentration 36 nM): 0.8511 and 0.8473
- TR-FRET signal at compound concentration (CDK12–cyclin K and DDB1; compound concentration 79.2001 nM): 1.261 and 1.263
- TR-FRET signal at compound concentration (CDK12–cyclin K and DDB1; compound concentration 158.4 nM): 1.515 and 1.577
- TR-FRET signal at compound concentration (CDK12–cyclin K and DDB1; compound concentration 309.6 nM): 1.862 and 1.944
- TR-FRET signal at compound concentration (CDK12–cyclin K and DDB1; compound concentration 626.401 nM): 2.0566 and 2.128
- TR-FRET signal at compound concentration (CDK12–cyclin K and DDB1; compound concentration 1252.8 nM): 2.108 and 2.242
- TR-FRET signal at compound concentration (CDK12–cyclin K and DDB1; compound concentration 2448 nM): 2.161 and 2.2916
- TR-FRET signal at compound concentration (CDK12–cyclin K and DDB1; compound concentration 9936.01 nM): 2.174 and 2.318
- TR-FRET signal at compound concentration (CDK12–cyclin K and DDB1; compound concentration 20016 nM): 2.132 and 2.191
- EC50 (CDK12–cyclin K and DDB1; [3]): 0.079 ± 0.006 µM
- EC50 (CDK12–cyclin K and DDB1; [4]): 0.0785 µM
- EC50 (CDK12–cyclin K and DDB1; [5]): 0.0785 µM
- DC50 [1, 6]: 0.365 µM
SMILES: CC[C@H](CO)Nc1nc(NCc2cnc(-c3ccccn3)cc2C2OCCO2)c2ncn(C(C)C)c2n1 [WX4]
- EC50 (HEK293T cells; [2]): 1.18 µM
- Toxicity rescue (HEK293T cells; Supplementary Table 2): 432%

- TR-FRET signal at compound concentration 4.68 nM (CDK12–cyclin K and DDB1; compound concentration 4.68 nM, raw titration data): 0.1939 and 0.1953
- TR-FRET signal at compound concentration 21.6 nM (CDK12–cyclin K and DDB1; compound concentration 21.6 nM, raw titration data): 0.4174 and 0.4335
- TR-FRET signal at compound concentration 36 nM (CDK12–cyclin K and DDB1; compound concentration 36 nM, raw titration data): 0.8682 and 0.9198
- TR-FRET signal at compound concentration 79.2001 nM (CDK12–cyclin K and DDB1; compound concentration 79.2001 nM, raw titration data): 1.565 and 1.549
- TR-FRET signal at compound concentration 158.4 nM (CDK12–cyclin K and DDB1; compound concentration 158.4 nM, raw titration data): 2.139 and 2.165
- TR-FRET signal at compound concentration 309.6 nM (CDK12–cyclin K and DDB1; compound concentration 309.6 nM, raw titration data): 2.574 and 2.56
- TR-FRET signal at compound concentration 626.401 nM (CDK12–cyclin K and DDB1; compound concentration 626.401 nM, raw titration data): 2.883 and 2.886
- TR-FRET signal at compound concentration 1252.8 nM (CDK12–cyclin K and DDB1; compound concentration 1252.8 nM, raw titration data): 3.135 and 3.111
- TR-FRET signal at compound concentration 2448 nM (CDK12–cyclin K and DDB1; compound concentration 2448 nM, raw titration data): 3.2283 and 3.26
- TR-FRET signal at compound concentration 9936.01 nM (CDK12–cyclin K and DDB1; compound concentration 9936.01 nM, raw titration data): 3.148 and 3.114
- TR-FRET signal at compound concentration 20016 nM (CDK12–cyclin K and DDB1; compound concentration 20016 nM, raw titration data): 2.946 and 3.018
- EC50 (CDK12–cyclin K and DDB1; [3]): 0.101 ± 0.005 µM
- EC50 (CDK12–cyclin K and DDB1; [5]): 0.101 µM
- DC50 [1, 6]: 0.566 µM
SMILES: Cc1nn(C)c(CNc2nc(NCc3ccc(-c4ccccn4)cc3)c3ncn(C(C)C)c3n2)c1S(N)(=O)=O [DS59]
- EC50 (HEK293T cells; [2]): 1.42 µM
- Toxicity rescue (HEK293T cells; Supplementary Table 2): 230%
